PubChem BioAssay (NCI)
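These data come from cells grown in 96-well plates and exposed to compound for 48 hours at five concentrations. TGI denotes the concentration required for complete inhibition of growth.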

What was measured:
Assay in all cases: growth of human tumour cells (NCI), 48 h
MDA-MB-231 breast = tested on: MDA-MB-231 breast
SF-539 CNS = tested on: SF-539 CNS
SNB-75 CNS = tested on: SNB-75 CNS
SN12C renal = tested on: SN12C renal
SF-268 CNS = tested on: SF-268 CNS
HCT-116 colon = tested on: HCT-116 colon
LOX IMVI melanoma = tested on: LOX IMVI melanoma
SK-MEL-28 melanoma = tested on: SK-MEL-28 melanoma
NCI-H522 lung = tested on: NCI-H522 lung
K-562 leukemia = tested on: K-562 leukemia
OVCAR-3 ovarian = tested on: OVCAR-3 ovarian

Row | Structure (SMILES) | TGI (MDA-MB-231 breast) | TGI (SF-539 CNS) | TGI (SNB-75 CNS) | TGI (SN12C renal) | TGI (SF-268 CNS) | TGI (HCT-116 colon) | TGI (LOX IMVI melanoma) | TGI (SK-MEL-28 melanoma) | TGI (NCI-H522 lung) | TGI (K-562 leukemia) | TGI (OVCAR-3 ovarian)
1 | COC(=O)CC[N+]1([O-])CC1 | > 100 µM | > 100 µM | > 100 µM | > 100 µM | > 100 µM | > 100 µM | > 100 µM | > 100 µM | – | – | –
2 | CC1=CC(=C(c2ccc(N)c(C)c2)c2ccc(N)c(C)c2)C=CC1=N | – | 14.5 µM | 8.91 µM | 4.31 µM | 17.8 µM | 13.3 µM | 15.3 µM | 19.2 µM | 13.6 µM | 22.5 µM | 16.7 µM
3 | COc1cc2c(cc1C)NC(=O)/C2=C\c1cccnc1 | – | 51.7 µM | 50.2 µM | 37.8 µM | 50 µM | > 100 µM | > 100 µM | > 100 µM | 70.2 µM | > 100 µM | 33.6 µM
4 | CCOC(=O)/C(=C\NC[C@@H](C)O)c1nc2ccccc2[nH]1 | – | > 100 µM | > 100 µM | > 100 µM | > 100 µM | > 100 µM | > 100 µM | > 100 µM | > 100 µM | – | > 100 µM
5 | CC[N+](C)(C)c1ccc(C(=C2C=CC(=[N+](C)C)C=C2)c2ccc(N(C)C)cc2)cc1 | – | 50.4 µM | 33.8 µM | > 100 µM | 32.4 µM | 19.5 µM | 24.2 µM | 52.4 µM | 9.37 µM | 15.2 µM | 22.5 µM
6 | N#Cc1c(-c2cccc(Br)c2)cc(-c2ccc(Cl)cc2)nc1N | – | 39.5 µM | – | 35.9 µM | 73.6 µM | 34.8 µM | 30.5 µM | – | 30.4 µM | 81.9 µM | 77.3 µM
7 | CCOC(=O)c1csc(NC(=O)CN2CCCCC2)n1 | > 100 µM | > 100 µM | > 100 µM | – | > 100 µM | – | > 100 µM | > 100 µM | – | > 100 µM | > 100 µM
8 | O=S(=O)(O)c1cccc2ccc(O)c(N=Nc3ccc(S(=O)(=O)c4ccc(N=Nc5c(O)ccc6cccc(S(=O)(=O)O)c56)cc4)cc3)c12 | > 100 µM | – | > 100 µM | > 100 µM | > 100 µM | > 100 µM | – | > 100 µM | > 100 µM | > 100 µM | > 100 µM
9 | COc1ccc(-c2cc(-c3ccccc3)c3c(n2)-c2ccccc2NC(=O)C3)cc1 | > 100 µM | > 100 µM | 37.8 µM | > 100 µM | > 100 µM | > 100 µM | > 100 µM | > 100 µM | – | 8.64 µM | > 100 µM
10 | CCOC(=O)N(C)CCC1CC=CC(=O)C1c1cccc(OC)c1OC (stereo not given) | > 100 µM | > 100 µM | – | 39.7 µM | 60 µM | 27.6 µM | > 100 µM | – | 27.5 µM | > 100 µM | 38.8 µM
11 | COC(=O)C1=C(O)C(C(=O)OC)[C@]2(O)[C@H](C(=O)OC)[C@H]1C[C@@H](c1ccc(O)cc1)[C@H]2C(=O)OC (stereo not given in full) | 60.7 µM | 88.3 µM | 81.5 µM | > 100 µM | > 100 µM | 94.3 µM | > 100 µM | > 100 µM | – | > 100 µM | 35.6 µM
12 | COc1ccc2c(c1)nc1n2C(c2c(F)cccc2F)SC1 (stereo not given) | > 100 µM | > 100 µM | > 100 µM | > 100 µM | > 100 µM | > 100 µM | > 100 µM | > 100 µM | – | > 100 µM | > 100 µM
13 | COc1cccc2c1C(=O)c1c(O)c3c(c(O)c1C2=O)CC(O)(C(C)=O)CC3OC1CC([N+](C)(C)C)C(O)C(C)O1 (stereo not given) | – | > 100 µM | > 100 µM | > 100 µM | > 100 µM | > 100 µM | > 100 µM | > 100 µM | > 100 µM | > 100 µM | > 100 µM
14 | O=S(=O)(O)c1cc(S(=O)(=O)O)c2c(N=Nc3ccccc3)c(O)ccc2c1 | > 100 µM | – | > 100 µM | > 100 µM | > 100 µM | > 100 µM | > 100 µM | > 100 µM | – | > 100 µM | > 100 µM
15 | COc1cc(/C=C2\N=C(c3ccccc3)N(c3ccc(S(=O)(=O)Nc4nccs4)cc3)C2=O)ccc1O | – | > 100 µM | > 100 µM | > 100 µM | > 100 µM | > 100 µM | > 100 µM | – | > 100 µM | > 100 µM | > 100 µM
16 | O=c1ccc(-c2ccc(-n3ccnc3)cc2)nn1CCO | – | > 100 µM | > 100 µM | > 100 µM | > 100 µM | > 100 µM | – | > 100 µM | > 100 µM | – | > 100 µM

Row | Structure (SMILES) | TGI (MDA-MB-231 breast) | TGI (SF-539 CNS) | TGI (SNB-75 CNS) | TGI (SN12C renal) | TGI (SF-268 CNS) | TGI (HCT-116 colon) | TGI (LOX IMVI melanoma) | TGI (SK-MEL-28 melanoma) | TGI (NCI-H522 lung) | TGI (K-562 leukemia) | TGI (OVCAR-3 ovarian)
17 | C=C[C@@]1(C)CC(=O)[C@]2(O)[C@@]3(C)[C@@H](OC(C)=O)CCC(C)(C)[C@@H]3[C@H](O)[C@H](OC(C)=O)[C@@]2(C)O1 | > 100 µM | > 100 µM | 87.7 µM | > 100 µM | – | > 100 µM | > 100 µM | > 100 µM | – | > 100 µM | > 100 µM
18 | CCCC[P+](CCCC)(CCCC)C(C(=O)OC)C(C(=O)OC)=C1SC(C(=O)OC)=C(C(=O)OC)S1 (stereo not given) | > 100 µM | – | > 100 µM | > 100 µM | > 100 µM | > 100 µM | > 100 µM | > 100 µM | > 100 µM | – | > 100 µM
19 | c1ccc2c(c1)Sc1ccccc1N2CCCN1c2ccccc2Sc2ccccc21 | > 100 µM | > 100 µM | – | > 100 µM | > 100 µM | > 100 µM | > 100 µM | > 100 µM | > 100 µM | > 100 µM | > 100 µM
20 | COC(=O)C1=C(O)C(C(=O)OC)[C@]2(O)[C@H](C(=O)OC)[C@H]1C[C@@H](c1ccc(Cl)cc1Cl)[C@H]2C(=O)OC (stereo not given in full) | 60 µM | 17.5 µM | 37.2 µM | 22.2 µM | 38.1 µM | 18.9 µM | 18.7 µM | 53.6 µM | – | 14 µM | 24.9 µM
21 | N#Cc1c(Cl)cccc1Oc1ccc(S(=O)(=O)/N=C(\NO)Nc2ccc(Cl)cc2)cc1 | 37.4 µM | 32.3 µM | – | 29.4 µM | 46.9 µM | 27.2 µM | 32 µM | 41 µM | 35.6 µM | 53.6 µM | 29.2 µM
22 | O=[N+]([O-])/C(C(Cl)=C(Cl)Cl)=C(\Nc1cccc2cccnc12)Sc1ccccc1 | > 100 µM | 40.4 µM | 72.2 µM | 87.7 µM | 42 µM | 39 µM | – | 36 µM | – | 84.5 µM | 28.3 µM
23 | CC1(C)C2CC1C(/C=N\OCC(=O)O)=CC2=O (stereo not given) | > 100 µM | > 100 µM | 97.9 µM | > 100 µM | > 100 µM | > 100 µM | > 100 µM | > 100 µM | – | > 100 µM | > 100 µM
24 | O=c1[nH]nc(Cc2ccccc2)n1N=C1CCCCC1 | > 100 µM | – | – | > 100 µM | > 100 µM | > 100 µM | > 100 µM | > 100 µM | > 100 µM | > 100 µM | > 100 µM
25 | CC(C)OP(=O)(OC(C)C)c1nn(-c2ccc([N+](=O)[O-])cc2)c(=N)s1 | – | > 100 µM | 95.5 µM | > 100 µM | > 100 µM | > 100 µM | – | > 100 µM | > 100 µM | > 100 µM | > 100 µM
26 | CC(SC(=S)N1CCCC1)C(=O)Nc1nnc(-c2ccc(Cl)cc2)o1 (stereo not given) | > 100 µM | > 100 µM | > 100 µM | 59.9 µM | 96.9 µM | 50 µM | 54.8 µM | > 100 µM | – | 78.7 µM | > 100 µM
27 | c1ccc2nc3c(nc2c1)sc1nc2ccccc2n13 | > 100 µM | > 100 µM | > 100 µM | > 100 µM | > 100 µM | > 100 µM | > 100 µM | – | – | > 100 µM | > 100 µM
28 | CC1CC/C(=C\c2ccc(Cl)cc2)C(=O)/C1=C\c1ccc(Cl)cc1 (stereo not given) | > 100 µM | – | > 100 µM | 95.5 µM | > 100 µM | > 100 µM | > 100 µM | > 100 µM | – | > 100 µM | –
29 | O=C1c2scc(-c3ccc(F)cc3)c2-n2cccc21 | > 100 µM | – | 45.2 µM | 87.9 µM | > 100 µM | > 100 µM | > 100 µM | > 100 µM | > 100 µM | – | > 100 µM
30 | C[C@@H]1C(=O)O[C@@H]2C[C@@]1(C)[C@@H]1C(=O)C3(O)OC14C2(C)OC(=O)[C@@]4(O)CCC1C3C(O)C=C2CC=CC(=O)[C@@]21C (stereo not given in full) | > 100 µM | 53.5 µM | 54.2 µM | > 100 µM | > 100 µM | 48.2 µM | – | 54.4 µM | – | > 100 µM | –
31 | CCOC(=O)c1nc2cc(F)c(F)cc2nc1NCc1cc(OC)c(OC)c(OC)c1 | – | > 100 µM | > 100 µM | > 100 µM | > 100 µM | > 100 µM | > 100 µM | > 100 µM | > 100 µM | – | > 100 µM
32 | COc1ccc(OC)c2sc(N3C(=O)/C(=C/c4ccc(N(C)C)cc4)N=C3c3ccccc3)nc12 | > 100 µM | > 100 µM | > 100 µM | > 100 µM | > 100 µM | > 100 µM | > 100 µM | > 100 µM | – | > 100 µM | > 100 µM
